Assay results taken from EP0156233A2, “Use of leukotriene antagonists for producing cytoprotective pharmaceutical compositions and process for producing cytoprotective pharmaceutical compositions” (Merck & Co., Inc., priority 1984, dated 1985).

System: S.D. rats
Assay: Indomethacin-Induced Ulcer Assay (assay B)
Type: in vivo
Details: 15 min prior to indomethacin 10 mg/kg p.o., 24 hr. fasted rats, sacrificed four hours later
Protocol: B. Indomethacin-Induced Ulcer Assay
Indomethacin, 10 mg/kg p.o., is used to induce ulcers in 24 hr. fasted S.D. rats. Fifteen minutes prior to indomethacin administration, groups of rats each receive either an aqueous vehicle (5% wt. methylcellulose) or the test compound at various doses perorally. Four hours later the animals are sacrificed and stomach mucosae are examined for resulting ulcers.
Following the procedure of assay B (Indomethacin-Induced Ulcer Assay), various compounds were tested for ulcer inhibition.

Question: For `CCCc1c(OCCCS(=O)(=O)c2ccc([C@H](O)[C@@H](C)CC(=O)O)cc2)ccc(C(C)=O)c1O` (relative stereo) [Example 77, (Beta S^*, gamma R^*) sodium 4-(3-(4-acetyl-3-hydroxy-2-propylphenoxy)propylsulfonyl)-gamma-hydroxy-beta-methylenzenebutanoate], which “% Inhib.” value (Dose 30 mg/kg p.o.) is on record?
Answer: 46.5%

Question: What does the source list for `CCCc1c(OCCCSc2ccc([C@H](O)[C@@H](C)CC(=O)O)cc2)ccc(C(C)=O)c1O` (relative stereo) [Example 78, (Beta S^*, gamma R^*)-sodium 4-(3-(4-acetyl-3-hydroxy-2-propylphenoxy)propylthio)-gamma-hydroxy-beta-methyl-benzenebutanoate]?
Answer: % Inhib. (Dose 0.03 mg/kg p.o.): 14.1%; % Inhib. (Dose 0.1 mg/kg p.o.): 27.1%; % Inhib. (Dose 0.3 mg/kg p.o.): 50.1%; % Inhib. (Dose 1 mg/kg p.o.): 70.1%; % Inhib. (Dose 3 mg/kg p.o.): 74.1%; % Inhib. (Dose 10 mg/kg p.o.): 76.1%

Question: What does the source list for `CCCc1c(OCCCOc2ccc([C@H](O)[C@@H](C)CC(=O)[O-])cc2)ccc(C(C)=O)c1O.[Na+]` (relative stereo) [Example 103, Sodium (beta S^*, gamma R^*) 4-(3-(4-acetyl-3-hydroxy-2-propylphenoxy)propyloxy)-gamma-hydroxy-beta-methylbenzenebutanoate]?
Answer: % Inhib. (Dose 0.1 mg/kg p.o.): 61.1%; % Inhib. (Dose 1 mg/kg p.o.): 76.1%; % Inhib. (Dose 10 mg/kg p.o.): 74.1%

Question: Which “% Inhib.” value (Dose 30 mg/kg p.o.) does the source give for `CCCc1c(OCCCS(=O)(=O)c2ccc(C(=O)CCC(=O)O)cc2)ccc(C(C)=O)c1O` [Example 29, 4-(3-(4-Acetyl-3-hydroxy-2-propylphenoxy)-propylsulfonyl)-gamma-oxobenzenebutanoic acid] here?
Answer: 78.9%

Question: With `CCCc1c(OCCCSc2ccc(C(=O)CCC#N)cc2)ccc(C(C)=O)c1O` [Example 40, 4-(3-(4-acetyl-3-hydroxy-2-propyl-phenoxy)propylthio)-gamma-oxobenzenebutyronitrile] as the compound, how does the “% Inhib.” value (Dose 30 mg/kg p.o.) read?
Answer: 89.4%
